US20070099276A1, “Retrovirus-like particles and retroviral vaccines” (priority 2003, published 2007)

Molecular target: HIV protease (Human immunodeficiency virus type 1 group M subtype B, UniProt P12497)
Type: cell-based, HIV-1
Description: Retrovirus-like particles and virions were isolated by centrifugation through a 20% sucrose pad in a SW28.1Ti rotor (Beckman-Coulter, Inc., Fullerton, Calif.) at 120,000 g at 4° C. for 1 hour. Immunoblot analyses of retrovirus-like particles and virion preparations (the equivalent of 10% of the transfection supernatant) were performed as previously described, using peroxidase-conjugated secondary antibodies and developed with the Enhanced ChemiLuminescence reagent (Amersham Life Science, Arlington Heights, Ill.). Rabbit antiserum against p6Gag (DJ-30552) and goat antiserum against, p7NC (#77), p17MA (#83), or p24CA (#81) were obtained from the AIDS Vaccine Program. Monoclonal antibody against reverse transcriptase was obtained from Perkin Elmer/NEN Life Science. N-terminal protein sequence analysis was carried out on an Applied Biosystems Procise model 494 microsequencer (Foster City, Calif.) as previously described (Chertova et al., J. Virol., 76:5315 (2002)). Micro-scale high-pressure liquid chromatography (HPLC) was performed as previously described (Chertova et al., J. Virol. 76:5315 (2002)). Matrix-assisted laser desorption/ionization-time-of-flight (MALDI) mass spectrometry was carried out as previously described (Ott et al., J. Virol., 73:19 (1999)) using a Kratos Kompact Probe (Kratos Analytical Inc., Chestnut Ridge, N.Y.).
To examine protease activity and mutant budding in another way, 293T cells were transfected with pNL4-3 or DelNC and then treated without or with 10 nM of the protease inhibitor Saquinavir for 24 hours.

CC(C)(C)NC(=O)[C@@H]1C[C@@H]2CCCC[C@@H]2CN1C[C@@H](O)[C@H](Cc1ccccc1)NC(=O)[C@H](CC(N)=O)NC(=O)c1ccc2ccccc2n1 [Saquinavir]
effect on DelNC Gag processing: essentially eliminated
effect on amount of pNL4-3 virions in the medium: not largely increased
effect on cleavage of NL4-3 Gag: only a slight reduction
effect on production of DelNC retrovirus-like particles: increased
